Measurements as given in patent publication US6440935B1, “Inhibition of eucaryotic pathogens and neoplasms and stimulation of fibroblasts and lymphocytes with lytic peptides” (priority 1987, dated 2002).
Residues, ends and D or L forms follow the SMILES beside them.

Assays:
[1] = test system: non-adherent normal human lymphocytes; assay: Viability by trypan blue exclusion, normal lymphocytes; format: cell-based
Description: (§1) EL-4 lymphoma cells were suspended in RPMI 1640 at 5,000,000/ml with 500,000 cells per well. Various concentrations of cecropin SB-37 and Shiva 1 were added and the wells incubated at 37° C. in a 5% CO2 atmosphere for one hour. Viability was determined by microscopic observation for trypan blue exclusion.
(§2) The procedure of Example 5 was repeated with 50 and 200 μM cecropin SB-37 using SP2 mouse lymphoma cells, KG-1 human leukemia cells, Daudi human Burkitt's lymphoma cells, non-adherent normal human lymphocytes and adherent 3T3 […] fibroblasts. Viability was determined by microscopic observation for trypan blue exclusion.
(§3) This procedure was repeated with 100 μM cecropin SB-37 using non-adherent normal human lymphocytes, Daudi human Burkitt's lymphoma cells, KG-1 human leukemia cells, U937 human monocytic leukemia cells, and SP2 murine myeloma cells, and determining viability by the trypan blue exclusion method at 15, 30 and 60 minutes following addition of the peptide.

[2] = test system: Xanthomonas campestris pv. campestris; assay: Plant pathogen LD50 in cecropin SB-37/lysozyme; format: cell-based; details: incubation at 30° C.
[3] = Viability by trypan blue exclusion, SP2 cells; format: cell-based, mouse; details: 100 μM
Description: as §1, §2, §3

[4] = test system: SP2 mouse lymphoma cells; assay: Viability by trypan blue exclusion, SP2 cells; format: cell-based
Description: as §1, §2, §3

CC[C@H](C)[C@H](NC(=O)CNC(=O)[C@H](CC(N)=O)NC(=O)[C@H](CCCNC(=N)N)NC(=O)[C@@H](NC(=O)[C@H](CC(N)=O)NC(=O)[C@H](CCCNC(=N)N)NC(=O)CNC(=O)[C@H](CCSC)NC(=O)[C@H](CCCCN)NC(=O)[C@H](CCC(=O)O)NC(=O)[C@@H](NC(=O)[C@H](CCCCN)NC(=O)[C@H](CCCCN)NC(=O)[C@H](Cc1ccccc1)NC(=O)[C@@H](NC(=O)[C@H](CCCCN)NC(=O)[C@H](Cc1c[nH]c2ccccc12)NC(=O)[C@H](CCCCN)NC(=O)[C@@H]1CCCN1C(=O)[C@@H](N)CCSC)C(C)C)[C@@H](C)CC)[C@@H](C)CC)C(=O)N[C@H](C(=O)N[C@@H](CCCCN)C(=O)N[C@@H](C)C(=O)NCC(=O)N1CCC[C@H]1C(=O)N[C@@H](C)C(=O)N[C@H](C(=O)N[C@@H](C)C(=O)N[C@H](C(=O)N[C@@H](CC(C)C)C(=O)NCC(=O)N[C@@H](CCC(=O)O)C(=O)N[C@@H](C)C(=O)N[C@@H](CCCCN)C(=O)N[C@@H](C)C(=O)N[C@@H](CC(C)C)C(=O)NCC(N)=O)C(C)C)[C@@H](C)CC)C(C)C [Cecropin SB-37] (H-MPKWKVFKKIEKMGRNIRNGIVKAGPAIAVLGEAKALG-NH2)
Survival (percent) ([1]; 50 μM): 100%
Survival (percent) ([1]; 100 μM): 30%
LD50 [2]: 0.57 µM
viability at 100 µM ([3]; 15 min.): 100%
viability at 100 µM ([3]; 30 min.): 40%
viability at 100 µM ([3]; 60 min.): 10%
Survival (percent) ([4]; 50 μM): 20%
Survival (percent) ([4]; 100 μM): 5%
